From patent publication US11161850B2, “Fused pyrazine derivatives as A2A / A2B inhibitors” (Incyte Corporation, priority 2018, dated 2021) come the findings set out here.

In experiment [1] the target is Adenosine A2A (Homo sapiens (Human), UniProt P29274). Kind of experiment: A2A Tag-Lite HTRF assay. It counts as binding. An excerpt: Example C. A2A Tag-Lite® HTRF Assay
Experiment [2] concerns the target human adenosine A2B receptor (Homo sapiens (Human), UniProt P29275). Kind of experiment: Adenosine A2B Receptor Cyclic AMP GS Assay. The experiment is classed as cell-based. Conditions: HEK-293 cells expressing human A2B, agonist NECA 12 nM. The method, boiled down:
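Stably transfected HEK-293 cells were preincubated with compound for 30 min at room temperature, then stimulated with 12 nM NECA for 60 min. cAMP accumulation was read by FRET (665/620 ratio), and EC50 was fitted from percent of control versus log compound concentration.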

The mark [3] stands for this setting: Tag-Lite Adenosine A2A labeled cells, fluorescent ligand 12.5 nM, read-out: A2A_Ki.

Where two headings read alike, the source gives them in different places.

Sequence of Adenosine A2A (P29274 whole entry): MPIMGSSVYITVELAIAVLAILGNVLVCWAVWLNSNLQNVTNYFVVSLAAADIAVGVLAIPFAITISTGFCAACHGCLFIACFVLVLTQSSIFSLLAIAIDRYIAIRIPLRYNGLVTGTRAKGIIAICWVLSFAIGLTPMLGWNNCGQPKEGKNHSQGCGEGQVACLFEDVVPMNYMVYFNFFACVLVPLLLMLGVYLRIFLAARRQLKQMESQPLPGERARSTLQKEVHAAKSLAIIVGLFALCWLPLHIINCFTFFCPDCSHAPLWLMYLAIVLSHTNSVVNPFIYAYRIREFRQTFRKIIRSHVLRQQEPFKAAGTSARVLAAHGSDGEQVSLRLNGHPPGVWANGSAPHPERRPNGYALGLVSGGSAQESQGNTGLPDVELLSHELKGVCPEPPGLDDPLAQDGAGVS
Sequence of human adenosine A2B receptor (P29275 whole entry): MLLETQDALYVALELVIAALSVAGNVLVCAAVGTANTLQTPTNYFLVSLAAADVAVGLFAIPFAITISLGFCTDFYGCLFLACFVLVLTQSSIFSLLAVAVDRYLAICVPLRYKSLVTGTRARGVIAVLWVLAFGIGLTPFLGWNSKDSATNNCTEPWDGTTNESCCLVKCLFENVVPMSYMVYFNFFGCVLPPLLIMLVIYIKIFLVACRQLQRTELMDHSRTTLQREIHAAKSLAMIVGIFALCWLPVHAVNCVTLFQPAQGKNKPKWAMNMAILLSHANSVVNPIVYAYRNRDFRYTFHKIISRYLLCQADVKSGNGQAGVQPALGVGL

Consider `N#Cc1cccc(-c2nc(N)c3nc(C(O)c4cc(F)ccc4F)nn3c2-c2ccncn2)c1` (single isomer, unassigned) [Example 52, 3-(8-Amino-2-((2,5-difluorophenyl)(hydroxy)methyl)-5-(pyrimidin-4-yl)-[1,2,4]triazolo[1,5-a]pyrazin-6-yl)benzonitrile], for which the Ki in experiment [1] (read-out: A2A_Ki, Tag-Lite Adenosine A2A labeled cells, fluorescent ligand 12.5 nM) was under 10 nM. For the same compound, in experiment [2] (read-out: A2B_cAMP_EC50), the EC50 is under 10 nM.
`N#Cc1cccc(-c2nc(N)c3cc(C(=O)N4CC(O)C4)nn3c2-c2ccncn2)c1` [Example 12, 3-(4-Amino-2-(3-hydroxyazetidine-1-carbonyl)-7-(pyrimidin-4-yl)pyrazolo[1,5-a]pyrazin-6-yl)benzonitrile]: in experiment [1] (setting [3]), the Ki is under 10 nM. This compound gave an EC50 in experiment [2] (A2B_cAMP_EC50 (nM)) of 10 to 100 nM.
In the same order, the values of `N#Cc1cccc(-c2nc(N)c3nc(Cc4ccccn4)nn3c2-c2ccc(O)nc2)c1` [Example 62, 3-(8-amino-5-(6-hydroxypyridin-3-yl)-2-(pyridin-2-ylmethyl)-[1,2,4]triazolo[1,5-a]pyrazin-6-yl)benzonitrile] are under 10 nM and under 10 nM.
In the same order, the values of `Cc1ncoc1-c1c(-c2cccc(C#N)c2F)nc(N)c2nc(Cc3ccccn3)nn12` [Example 86, 3-(8-amino-5-(4-methyloxazol-5-yl)-2-(pyridin-2-ylmethyl)-[1,2,4]triazolo[1,5-a]pyrazin-6-yl)-2-fluorobenzonitrile] are under 10 nM and under 10 nM.
`N#Cc1cccc(-c2nc(N)c3cc(C(O)c4ccccc4F)nn3c2Br)c1` (stereo not shown) [Example 22, 3-(4-Amino-7-bromo-2-((2-fluorophenyl)(hydroxy)methyl)pyrazolo[1,5-a]pyrazin-6-yl)benzonitrile]: in experiment [1] (setting [3]), the Ki was under 10 nM. The EC50 in experiment [2] (A2B_cAMP_EC50 (nM)) fell in the range of 100 to 1000 nM.
For the compound `Cc1ncoc1-c1c(-c2cccc(C#N)c2)nc(N)c2nc(C(N)c3c(F)cccc3F)nn12` (stereo not shown) [Example 77, 3-(8-amino-2-(amino(2,6-difluorophenyl)methyl)-5-(4-methyloxazol-5-yl)-[1,2,4]triazolo[1,5-a]pyrazin-6-yl)benzonitrile], in experiment [1] (setting [3]), the Ki was under 10 nM. In experiment [2] (A2B_cAMP_EC50 (nM)), this compound showed an EC50 of under 10 nM.
As for `N#Cc1cccc(-c2nc(N)c3nc(C(O)c4c(F)cccc4CN4CCCC4)nn3c2-c2ccncn2)c1` (single isomer, unassigned) [Example 110, 3-(8-amino-2-((2-fluoro-6-(pyrrolidin-1-ylmethyl)phenyl)(hydroxy)methyl)-5-(pyrimidin-4-yl)-[1,2,4]triazolo[1,5-a]pyrazin-6-yl)benzonitrile], the Ki in experiment [1] was under 10 nM. This compound also returned an EC50 in experiment [2] (A2B_cAMP_EC50 (nM)) of 100 to 1000 nM.
In the case of `N#Cc1cccc(-c2nc(N)c3nc(Cc4ncccc4-c4cnco4)nn3c2-c2ccncn2)c1` [Example 82, 3-(8-amino-2-((3-(oxazol-5-yl)pyridin-2-yl)methyl)-5-(pyrimidin-4-yl)-[1,2,4]triazolo[1,5-a]pyrazin-6-yl)benzonitrile], the Ki in experiment [1] (setting [3]) is under 10 nM. The same compound yielded an EC50 in experiment [2] (A2B_cAMP_EC50 (nM)) of under 10 nM.
On to `N#Cc1cccc(-c2nc(N)c3nc(Cc4c(F)cccc4CNCC(N)=O)nn3c2-c2ccncn2)c1` [Example 69, 2-((2-((8-amino-6-(3-cyanophenyl)-5-(pyrimidin-4-yl)-[1,2,4]triazolo[1,5-a]pyrazin-2-yl)methyl)-3-fluorobenzyl)amino)acetamide], for which the Ki in experiment [1] (setting [3]) is under 10 nM. Besides, the EC50 in experiment [2] (A2B_cAMP_EC50 (nM)) was under 10 nM.
`CCc1ncoc1-c1c(-c2cccc(C#N)c2)nc(N)c2nc(Cc3ccccn3)nn12` [Example 43, 3-(8-Amino-5-(4-ethyloxazol-5-yl)-2-(pyridin-2-ylmethyl)-[1,2,4]triazolo[1,5-a]pyrazin-6-yl)benzonitrile]: the Ki in experiment [1] (setting [3]) was under 10 nM. In addition, the EC50 in experiment [2] (A2B_cAMP_EC50 (nM)) is under 10 nM.
For the compound `N#Cc1cccc(-c2cn3nc(C(O)c4c(F)cccc4CN4CCN5C(=O)CCC5C4)nc3c(N)n2)c1F` (racemic) [Example 113, 3-(8-amino-2-((2-fluoro-6-((6-oxohexahydropyrrolo[1,2-a]pyrazin-2(1H)-yl)methyl)phenyl)(hydroxy)methyl)-[1,2,4]triazolo[1,5-a]pyrazin-6-yl)-2-fluorobenzonitrile], in experiment [1] (setting [3]), the Ki was under 10 nM. The same compound yielded an EC50 in experiment [2] (A2B_cAMP_EC50 (nM)) of 10 to 100 nM.
Compound `CCn1nccc1-c1c(-c2cccc(C#N)c2)nc(N)c2nc(C(O)c3c(F)cccc3F)nn12` (single isomer, unassigned) [Example 92, 3-(8-amino-2-((2,6-difluorophenyl)(hydroxy)methyl)-5-(1-ethyl-1H-pyrazol-5-yl)-[1,2,4]triazolo[1,5-a]pyrazin-6-yl)benzonitrile] showed a Ki in experiment [1] of under 10 nM. Also, in experiment [2] (A2B_cAMP_EC50 (nM)), the EC50 is under 10 nM.
In the case of `N#Cc1cccc(-c2cn3nc(Cc4c(F)cccc4-c4cnn(CC(N)=O)c4)nc3c(N)n2)c1F` [Example 115, 2-(4-(2-((8-amino-6-(3-cyano-2-fluorophenyl)-[1,2,4]triazolo[1,5-a]pyrazin-2-yl)methyl)-3-fluorophenyl)-1H-pyrazol-1-yl)acetamide], in experiment [1] (setting [3]), the Ki is under 10 nM. Moreover, the EC50 in experiment [2] (A2B_cAMP_EC50 (nM)) was under 10 nM.
The compound `N#Cc1cccc(-c2nc(N)c3cc(CN4CCC4)nn3c2-c2ccncn2)c1` [Example 13, 3-(4-Amino-2-(azetidin-1-ylmethyl)-7-(pyrimidin-4-yl)pyrazolo[1,5-a]pyrazin-6-yl)benzonitrile] yielded a Ki in experiment [1] of 10 to 100 nM. This compound also gave an EC50 in experiment [2] (A2B_cAMP_EC50 (nM)) of 100 to 1000 nM.
Turning to `N#Cc1cccc(-c2nc(N)c3nc(Cc4cccc5ccnn45)nn3c2-c2ccncn2)c1` [Example 46, 3-(8-Amino-2-(pyrazolo[1,5-a]pyridin-7-ylmethyl)-5-(pyrimidin-4-yl)-[1,2,4]triazolo[1,5-a]pyrazin-6-yl)benzonitrile], the Ki in experiment [1] (setting [3]) was under 10 nM. The same compound registered an EC50 in experiment [2] (A2B_cAMP_EC50 (nM)) of under 10 nM.
In the case of `Cn1nc(-c2c(-c3cccc(C#N)c3)nc(N)c3nc(C(N)c4c(F)cccc4F)nn23)ccc1=O` (stereo not shown) [Example 81, 3-(8-amino-2-(amino(2,6-difluorophenyl)methyl)-5-(1-methyl-6-oxo-1,6-dihydropyridazin-3-yl)-[1,2,4]triazolo[1,5-a]pyrazin-6-yl)benzonitrile], the Ki in experiment [1] (setting [3]) is under 10 nM. Moreover, in experiment [2] (A2B_cAMP_EC50 (nM)), the EC50 was under 10 nM.
On to `N#Cc1cccc(-c2nc(N)c3nc(Cn4cc5ccccc5n4)nn3c2-c2ccncn2)c1` [Example 47, 3-(2-((2H-Indazol-2-yl)methyl)-8-amino-5-(pyrimidin-4-yl)-[1,2,4]triazolo[1,5-a]pyrazin-6-yl)benzonitrile], for which the Ki in experiment [1] (setting [3]) is under 10 nM. For the same compound, the EC50 in experiment [2] (A2B_cAMP_EC50 (nM)) lay in the range of 10 to 100 nM.
In the case of `N#Cc1cccc(-c2nc(N)c3cc(Cc4ccccn4)nn3c2-c2ccncn2)c1` [Example 17, 3-(4-Amino-2-(pyridin-2-ylmethyl)-7-(pyrimidin-4-yl)pyrazolo[1,5-a]pyrazin-6-yl)benzonitrile], in experiment [1] (setting [3]), the Ki was under 10 nM. This compound also displayed an EC50 in experiment [2] (A2B_cAMP_EC50 (nM)) of under 10 nM.
For the compound `N#Cc1cccc(-c2nc(N)c3cc(Cc4ccccc4F)nn3c2C#N)c1` [Example 20, 4-Amino-6-(3-cyanophenyl)-2-(2-fluorobenzyl)pyrazolo[1,5-a]pyrazine-7-carbonitrile], in experiment [1] (setting [3]), the Ki was under 10 nM. In addition, in experiment [2] (A2B_cAMP_EC50 (nM)), the EC50 is under 10 nM.
Consider `N#Cc1cccc(-c2nc(N)c3nc(Cc4c(F)cccc4CN[C@H]4CCNC4=O)nn3c2-c2ccncn2)c1` [Example 68, (S)-3-(8-amino-2-(2-fluoro-6-(((2-oxopyrrolidin-3-yl)amino)methyl)benzyl)-5-(pyrimidin-4-yl)-[1,2,4]triazolo[1,5-a]pyrazin-6-yl)benzonitrile], for which, in experiment [1] (setting [3]), the Ki was under 10 nM. The compound also displayed an EC50 in experiment [2] (A2B_cAMP_EC50 (nM)) of 10 to 100 nM.
Turning to `N#Cc1cccc(-c2nc(N)c3cc(C(=O)N4CCCC4)nn3c2-c2ccncn2)c1` [Example 8, 3-(4-Amino-7-(pyrimidin-4-yl)-2-(pyrrolidine-1-carbonyl)pyrazolo[1,5-a]pyrazin-6-yl)benzonitrile], in experiment [1] (setting [3]), the Ki is under 10 nM. The compound also came in with an EC50 in experiment [2] (A2B_cAMP_EC50 (nM)) of 10 to 100 nM.
In the same order, the values of `N#Cc1cccc(-c2nc(N)c3cc(C(=O)N4CCCCC4)nn3c2-c2ccncn2)c1` [Example 9, 3-(4-Amino-2-(piperidine-1-carbonyl)-7-(pyrimidin-4-yl)pyrazolo[1,5-a]pyrazin-6-yl)benzonitrile] are under 10 nM and 10 to 100 nM.
Taken in the same sequence, the figures for `C[C@@]1(C(=O)O)CCN(Cc2cccc(F)c2Cc2nc3c(N)nc(-c4cccc(C#N)c4)c(-c4ccncn4)n3n2)C1` [Example 65, (R)-1-(2-((8-amino-6-(3-cyanophenyl)-5-(pyrimidin-4-yl)-[1,2,4]triazolo[1,5-a]pyrazin-2-yl)methyl)-3-fluorobenzyl)-3-methylpyrrolidine-3-carboxylic Acid] were under 10 nM and 10 to 100 nM.
In the same order, the values of `N#Cc1cccc(-c2nc(N)c3cc(C(O)c4ccccc4F)nn3c2-c2ccncn2)c1` (stereo not shown) [Example 38, 3-(4-Amino-2-((2-fluorophenyl)(hydroxy)methyl)-7-(pyrimidin-4-yl)pyrazolo[1,5-a]pyrazin-6-yl)benzonitrile] are under 10 nM and under 10 nM.
In the case of `CN1CC[C@H](NCc2cccc(F)c2Cc2nc3c(N)nc(-c4cccc(C#N)c4F)cn3n2)C1=O` [Example 84, (S)-3-(8-amino-2-(2-fluoro-6-(((1-methyl-2-oxopyrrolidin-3-yl)amino)methyl)benzyl)-[1,2,4]triazolo[1,5-a]pyrazin-6-yl)-2-fluorobenzonitrile], the Ki in experiment [1] (setting [3]) is under 10 nM. The compound further came in with an EC50 in experiment [2] (A2B_cAMP_EC50 (nM)) of under 10 nM.
As for `CCNC(=O)c1cc2c(N)nc(-c3cccc(C#N)c3)c(C(C)(F)F)n2n1` [Example 5, 4-Amino-6-(3-cyanophenyl)-7-(1,1-difluoroethyl)-N-ethylpyrazolo[1,5-a]pyrazine-2-carboxamide], the Ki in experiment [1] (setting [3]) is under 10 nM. In experiment [2] (A2B_cAMP_EC50 (nM)), this compound showed an EC50 of 100 to 1000 nM.
